In patent US7977322B2 (Vertex Pharmaceuticals Incorporated, priority 2004, dated 2011):

Molecular target: T1, ΔF508-CFTR (Homo sapiens, UniProt P13569, DEL508-508)
T1 construct: expressed in transfected cells
Assay: Membrane potential optical (FRET/VIPR) assay, identification of correction compounds
Type: cell-based
Conditions: Table 3, assay not given; for Emax: read-out: % Activity / % Efficacy (relative efficacy)
Method in brief: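 NIH3T3 mouse fibroblasts stably expressing ΔF508-CFTR were exposed to compound for 16 h at 37° C in serum-free medium, then loaded with DiSBAC2(3)/CC2-DMPE. After addition of 10 μM forskolin plus 20 μM genistein in Cl⁻-free gluconate bath (pH 7.4), depolarization from Cl⁻ efflux was read by FRET (VIPR II).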

T1 sequence (P13569 with tags, fused parts or gaps DEL508-508): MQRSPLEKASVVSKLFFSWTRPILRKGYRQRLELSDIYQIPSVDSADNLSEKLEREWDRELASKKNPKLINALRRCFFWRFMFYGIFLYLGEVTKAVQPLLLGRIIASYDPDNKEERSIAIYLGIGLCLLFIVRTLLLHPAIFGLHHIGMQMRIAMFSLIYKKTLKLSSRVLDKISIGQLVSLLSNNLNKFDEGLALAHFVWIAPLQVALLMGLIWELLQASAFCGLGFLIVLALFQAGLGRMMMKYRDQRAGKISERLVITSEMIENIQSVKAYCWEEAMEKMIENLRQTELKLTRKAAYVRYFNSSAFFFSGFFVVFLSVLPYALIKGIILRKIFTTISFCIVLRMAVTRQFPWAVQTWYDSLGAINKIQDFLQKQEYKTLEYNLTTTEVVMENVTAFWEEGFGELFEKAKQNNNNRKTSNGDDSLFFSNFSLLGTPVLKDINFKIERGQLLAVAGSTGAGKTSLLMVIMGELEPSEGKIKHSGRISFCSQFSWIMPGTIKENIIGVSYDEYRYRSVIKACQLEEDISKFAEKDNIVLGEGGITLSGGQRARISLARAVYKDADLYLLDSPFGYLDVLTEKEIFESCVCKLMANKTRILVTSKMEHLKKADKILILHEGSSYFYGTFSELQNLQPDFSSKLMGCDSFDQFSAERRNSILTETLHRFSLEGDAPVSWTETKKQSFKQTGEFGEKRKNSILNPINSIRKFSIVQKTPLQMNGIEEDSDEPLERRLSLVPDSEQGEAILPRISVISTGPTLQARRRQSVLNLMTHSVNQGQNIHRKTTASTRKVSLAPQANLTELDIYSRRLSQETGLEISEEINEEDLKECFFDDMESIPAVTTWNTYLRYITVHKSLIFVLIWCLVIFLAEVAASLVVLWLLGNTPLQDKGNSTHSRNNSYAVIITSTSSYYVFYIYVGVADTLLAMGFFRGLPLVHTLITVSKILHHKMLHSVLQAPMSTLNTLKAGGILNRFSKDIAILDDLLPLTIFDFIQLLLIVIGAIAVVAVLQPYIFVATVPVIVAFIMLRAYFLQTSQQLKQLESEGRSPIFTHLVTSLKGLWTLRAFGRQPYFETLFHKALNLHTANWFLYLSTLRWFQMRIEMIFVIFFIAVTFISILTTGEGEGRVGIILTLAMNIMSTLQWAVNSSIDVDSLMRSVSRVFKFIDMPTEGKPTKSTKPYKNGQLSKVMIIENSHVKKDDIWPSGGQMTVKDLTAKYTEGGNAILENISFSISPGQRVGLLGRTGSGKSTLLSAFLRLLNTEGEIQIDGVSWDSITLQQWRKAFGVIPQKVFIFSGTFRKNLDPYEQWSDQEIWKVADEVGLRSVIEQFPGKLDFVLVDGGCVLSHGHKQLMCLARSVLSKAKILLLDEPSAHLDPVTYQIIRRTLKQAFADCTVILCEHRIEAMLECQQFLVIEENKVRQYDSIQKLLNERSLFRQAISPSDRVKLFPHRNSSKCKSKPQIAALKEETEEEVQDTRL

SMILES	EC50 [µM]	Emax [%]	% Activity / % Efficacy (relative efficacy)
CCC[C@H](CO)NC(c1cnc(NC(=O)C2(c3ccc4c(c3)OCO4)CC2)s1)c1ccccc1Cl (stereo partly shown) [Example 489]	< 10	> 100	
O=C(Nc1ncc(C(NCCN2CCOCC2)c2ccccc2Cl)s1)C1(c2ccc3c(c2)OCO3)CC1 (stereo not shown) [Example 188]	< 10		++ (“++” means between 25% to 100%)
O=C(Nc1ncc(Cc2ccccc2Cl)s1)C1(c2ccccc2F)CCCCC1 [Example 306]	< 10	> 100	
CC(C)(C)C(c1cnc(NC(=O)C2(c3ccc4c(c3)OCO4)CC2)s1)N1CC[C@@H](O)C1 (stereo partly shown) [Example 390]	10 to 25	> 100	
COc1ccc(Cc2cnc(NC(=O)C3(c4ccc(OC)cc4)CC3)s2)cc1 [Example 180]	< 10		+++ (“+++” means>100%)
Cn1nc(-c2ccc(Cl)c(Cl)c2)cc1NC(=O)C1(c2ccc3c(c2)OCO3)CC1 [Example 287]	< 10	> 100	
CN(C)C(c1ccc(S(C)(=O)=O)cc1)c1cnc(NC(=O)C2(c3ccc4c(c3)OCO4)CC2)s1 (stereo not shown) [Example 381]	10 to 25	25 to 100	
O=C(Nc1ncc(C(c2ccccc2C(F)(F)F)N2CC[C@@H](O)C2)s1)C1(c2ccc3c(c2)OCO3)CC1 (stereo partly shown) [Example 464]	< 10	> 100	
CCN(CC)C(Cc1ccccc1Cl)c1cnc(NC(=O)C2(c3ccc4c(c3)OCO4)CC2)s1 (stereo not shown) [Example 459]	< 10	> 100	
COCCNC(c1cnc(NC(=O)C2(c3ccc4c(c3)OCO4)CC2)s1)c1ccccc1Cl (stereo not shown) [Example 439]	< 10	> 100	
COc1ccc(C2(C(=O)Nc3cnc(Cc4ccccc4Cl)s3)CC2)cc1 [Example 270]	< 10		++ (“++” means between 25% to 100%)
C=CCN(C)C(c1cnc(NC(=O)C2(c3ccc4c(c3)OCO4)CC2)s1)c1ccccc1Cl (stereo not shown) [Example 218]	< 10		+++ (“+++” means>100%)
COc1cccc(C(c2cnc(NC(=O)C3(c4ccc5c(c4)OCO5)CC3)s2)N2CCCC2)c1 (stereo not shown) [Example 373]	< 10	> 100	
COc1ccc(C2(C(=O)Nc3ncc(C4(c5ccccc5OC)CC4)s3)CC2)cc1 [Example 243]	< 10		+++ (“+++” means>100%)
Cc1cc(NC(=O)C2(c3ccc4c(c3)OCO4)CC2)n(Cc2ccccc2)n1 [Example 297]	10 to 25	25 to 100	
O=C(Nc1ncc(Cc2ccccc2Cl)s1)C1(c2ccc(OC(F)(F)F)cc2)CC1 [Example 174]	< 10		+++ (“+++” means>100%)
Cc1ccccc1C(c1cnc(NC(=O)C2(c3ccc4c(c3)OCO4)CC2)s1)N1CCCC1 (stereo not shown) [Example 469]	< 10	> 100	

SMILES	EC50 [µM]	Emax [%]	% Activity / % Efficacy (relative efficacy)
O=C(Nc1ncc(C(c2ccccc2Cl)N2CCC[C@@H]2CO)s1)C1(c2ccc3c(c2)OCO3)CC1 (stereo partly shown) [Example 229]	< 10	> 100	
COc1ccccc1C1(C(=O)Nc2ncc(Cc3ccccc3Cl)s2)CC1 [Example 65]	< 10	> 100	
COC[C@@H]1CCCN1C(Cc1ccccc1Cl)c1cnc(NC(=O)C2(c3ccc4c(c3)OCO4)CC2)s1 (stereo partly shown) [Example 456]	< 10	> 100	
COc1ccc(C2(C(=O)Nc3ncc(Cc4ccc(F)cc4F)s3)CC2)cc1 [Example 264]	< 10		+++ (“+++” means>100%)
O=C(Nc1ncc(C(OCCN2CCCC2)c2ccccc2Cl)s1)C1(c2ccc3c(c2)OCO3)CC1 (stereo not shown) [Example 255]	< 10		
O=C(Nc1ncc(Cc2ccccc2Cl)s1)C1(c2ccc3c(c2)OCO3)CC1 [Example 56]	< 10		++ (“++” means between 25% to 100%)
O=C(Nc1ncc(C(c2ccccc2Cl)N2CC[C@@H](O)C2)s1)C1(c2ccccc2C(F)(F)F)CC1 (stereo partly shown) [Example 442]	< 10	25 to 100	
CS(=O)(=O)c1ccc(C(c2cnc(NC(=O)C3(c4ccc5c(c4)OCO5)CC3)s2)N2CCC(O)CC2)cc1 (stereo not shown) [Example 380]	10 to 25	25 to 100	
CS(=O)(=O)c1ccc(C(c2cnc(NC(=O)C3(c4ccc5c(c4)OCO5)CC3)s2)N2CC[C@@H](O)C2)cc1 (stereo partly shown) [Example 378]	10 to 25	25 to 100	
COc1ccncc1Cc1cnc(NC(=O)C2(c3ccc4c(c3)OCO4)CC2)s1 [Example 244]	< 10		+++ (“+++” means>100%)
O=C(Nc1cnc(Cc2ccccc2Cl)s1)C1(c2ccc3c(c2)OCO3)CC1 [Example 267]	< 10	> 100	
O=C(Nc1ncc(Sc2ccc(Cl)cc2)s1)C1(c2ccc3c(c2)OCO3)CC1 [Example 103]	25 to 60		++ (“++” means between 25% to 100%)
CC(C)[C@@H](CO)NC(c1cnc(NC(=O)C2(c3ccc4c(c3)OCO4)CC2)s1)c1ccccc1Cl (stereo partly shown) [Example 246]	< 10	> 100	
CCN(CC)CCn1cc(Cc2ccccc2Cl)s/c1=N/C(=O)C1(c2ccc(OC)cc2)CC1 [Example 74]	25 to 60		++ (“++” means between 25% to 100%)
CCOc1ccccc1C(c1cnc(NC(=O)C2(c3ccc4c(c3)OCO4)CC2)s1)N1CC[C@@H](O)C1 (stereo partly shown) [Example 473]	< 10	> 100	
COc1ccccc1-c1csc(NC(=O)C2(c3ccc4c(c3)OCO4)CC2)n1 [Example 112]	10 to 25		+ (“+” means<25%)
COc1ccc(C2(C(=O)Nc3ncc(C(c4ccccc4Cl)N4CC[C@@H](O)C4)s3)CC2)cc1OC (stereo partly shown) [Example 451]	< 10	> 100	

Second part, the compound after the results:

EC50 [µM]	Emax [%]	% Activity / % Efficacy (relative efficacy)	SMILES
< 10	> 100		COc1cccc(C(c2cnc(NC(=O)C3(c4ccc5c(c4)OCO5)CC3)s2)N2CC[C@@H](O)C2)c1 (stereo partly shown) [Example 367]
< 10		+++ (“+++” means>100%)	COc1ccc(-c2csc(NC(=O)C3(c4ccc(OC)cc4)CC3)n2)cc1 [Example 79]
< 10		+++ (“+++” means>100%)	CN(C)CCNC(c1cnc(NC(=O)C2(c3ccc4c(c3)OCO4)CC2)s1)c1ccccc1Cl (stereo not shown) [Example 187]
< 10	> 100		COCC1CCCN1C(c1cccc(OC)c1)c1cnc(NC(=O)C2(c3ccc4c(c3)OCO4)CC2)s1 (stereo not shown) [Example 353]
< 10		+++ (“+++” means>100%)	COc1cccnc1Cc1cnc(NC(=O)C2(c3ccc4c(c3)OCO4)CC2)s1 [Example 266]
< 10	> 100		O=C(Nc1ncc([C@@H](c2ccccc2Cl)N2CCCCC2)s1)C1(c2ccc3c(c2)OCO3)CC1 [Example 211]
10 to 25	> 100		CN(C)C(c1ccccc1)c1cnc(NC(=O)C2(c3ccc4c(c3)OCO4)CC2)s1 (stereo not shown) [Example 356]
< 10	> 100		COCC1CCCN1C(c1ccc(Cl)cc1)c1cnc(NC(=O)C2(c3ccc4c(c3)OCO4)CC2)s1 (stereo not shown) [Example 331]
< 10		+++ (“+++” means>100%)	COc1ccc(C2(C(=O)Nc3nc(-c4cccc(Cl)c4)cs3)CC2)cc1 [Example 123]
10 to 25	> 100		COc1ccccc1C(c1cnc(NC(=O)C2(c3ccc4c(c3)OCO4)CC2)s1)N1CCC(O)CC1 (stereo not shown) [Example 348]
< 10	> 100		CC(C)[C@H](CO)NC(c1ccc2c(c1)OC(F)(F)O2)c1cnc(NC(=O)C2(c3ccc4c(c3)OCO4)CC2)s1 (stereo partly shown) [Example 493]
< 10	25 to 100		CN1CCCC1CCNC(c1cnc(NC(=O)C2(c3ccc4c(c3)OCO4)CC2)s1)c1ccccc1Cl (stereo not shown) [Example 405]
< 10		++ (“++” means between 25% to 100%)	CCN(C)CCOC(c1cnc(NC(=O)C2(c3ccc4c(c3)OCO4)CC2)s1)c1ccccc1Cl (stereo not shown) [Example 276]
< 10	> 100		O=C(Nc1ncc(C(NC2CCCCC2)c2ccccc2Cl)s1)C1(c2ccc3c(c2)OCO3)CC1 (stereo not shown) [Example 411]
< 10	> 100		O=C(Nc1ncc(C(c2cc(F)ccc2F)N2CC[C@@H](O)C2)s1)C1(c2ccc3c(c2)OCO3)CC1 (stereo partly shown) [Example 474]
< 10	> 100		O=C(Nc1ncc(C(c2ccccc2)N2CCCCC2)s1)C1(c2ccc3c(c2)OCO3)CC1 (stereo not shown) [Example 371]
< 10		++ (“++” means between 25% to 100%)	COc1ccccc1Cc1cnc(NC(=O)C2(c3ccccc3OC)CC2)s1 [Example 70]
10 to 25	> 100		CC(C)(C)C(c1cnc(NC(=O)C2(c3ccc4c(c3)OCO4)CC2)s1)N1CCC(O)CC1 (stereo not shown) [Example 392]
< 10	> 100		O=C(Nc1ncc(C(c2ccccc2Cl)N2CC[C@@H](O)C2)s1)C1(c2ccc(C(F)(F)F)cc2)CC1 (stereo partly shown) [Example 445]
< 10		+++ (“+++” means>100%)	COc1ccc(C2(C(=O)Nc3ncc(Cc4ccccc4Cl)n3C)CC2)cc1 [Example 63]
< 10		+++ (“+++” means>100%)	COC(c1cnc(NC(=O)C2(c3ccc4c(c3)OCO4)CC2)s1)c1ccccc1Cl (stereo not shown) [Example 260]
< 10		+++ (“+++” means>100%)	COc1cccc(C2(C(=O)Nc3ncc(Cc4ccccc4Cl)s3)CC2)c1 [Example 66]
< 10	> 100		COCCOC(c1cnc(NC(=O)C2(c3ccc4c(c3)OCO4)CC2)s1)c1ccccc1Cl (stereo not shown) [Example 273]
< 10	> 100		CC(C)[C@H](CO)NC(c1cnc(NC(=O)C2(c3ccc4c(c3)OCO4)CC2)s1)c1ccccc1Cl (stereo partly shown) [Example 440]
